From patent US20230236193A1, “[…] FOR S[…]” (VANDERBILT UNIVERSITY, priority 2020, published 2023)
≈ marks a conversion by molar mass, not a printed value.

T1: HsaSiglec+Unique (SLBRHsa, GST fusion), wild-type, Streptococcus gordonii strain Challis (Streptococcus gordonii, UniProt A8AWU7)
T1 construct: the Siglec and Unique domains of Hsa; made in house
T1 sequence (A8AWU7 220-449 limits assumed): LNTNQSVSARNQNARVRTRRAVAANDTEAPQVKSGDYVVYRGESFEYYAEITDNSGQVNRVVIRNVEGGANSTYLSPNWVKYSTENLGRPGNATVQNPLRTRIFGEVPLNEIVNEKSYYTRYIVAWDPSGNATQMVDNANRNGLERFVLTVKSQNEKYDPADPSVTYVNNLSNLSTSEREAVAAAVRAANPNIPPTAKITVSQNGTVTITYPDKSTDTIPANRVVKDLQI

T2: UB10712Siglec+Unique (SLBRUB10712, GST fusion), S. gordonii strain UB10712, variant E285R (Streptococcus mitis, UniProt A0A6I8WFK9)
T2 sequence (A0A6I8WFK9 1-210): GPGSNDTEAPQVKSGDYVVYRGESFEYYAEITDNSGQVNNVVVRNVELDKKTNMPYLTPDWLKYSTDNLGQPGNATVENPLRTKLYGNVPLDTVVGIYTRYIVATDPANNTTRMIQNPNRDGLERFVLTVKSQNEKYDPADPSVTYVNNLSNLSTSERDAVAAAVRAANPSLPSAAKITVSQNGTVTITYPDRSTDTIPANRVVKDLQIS


Assays:
[1] = test system: UB10712Siglec+Unique (SLBRUB10712, GST fusion), S. gordonii strain UB10712, chimera +Hsa FG loop; experiment: ELISA, biotinylated sialoglycan binding to immobilized GST-adhesin chimera; design: species or system Streptococcus gordonii strain UB10712; settings: +SLBRHsa FG loop; one-point, 1-2 μg/ml biotinylated glycans
Source text: (§1) 21. FIGS. 11A, and 11B show chimeras of SRR adhesins. […] Values correspond to the mean±standard deviation, with n=2 (wt) or n=3 (variants). […] Values correspond to the mean±standard deviation, with n=2 (wt) or n=3 (variants).

[2] = test system: UB10712Siglec+Unique (SLBRUB10712, GST fusion), S. gordonii strain UB10712, chimera +Hsa CD loop; experiment: as above; design: species or system Streptococcus gordonii strain UB10712; settings: +SLBRHsa CD loop; one-point, 1-2 μg/ml biotinylated glycans
Source text: as §1

[3] = test system: UB10712Siglec+Unique (SLBRUB10712, GST fusion), S. gordonii strain UB10712, chimera +Hsa EF loop; experiment: as above; design: species or system Streptococcus gordonii strain UB10712; settings: +SLBRHsa EF loop; one-point, 1-2 μg/ml biotinylated glycans
Source text: as §1

[4] = test system: SK678Siglec+Unique (SLBRSK678, GST fusion), S. sanguinis strain SK678, chimera +Hsa EF loop; experiment: as above; design: species or system Streptococcus sanguinis strain SK678; settings: +SLBRHsa EF loop; one-point, 1-2 μg/ml biotinylated glycans
Source text: as §1

[5] = test system: SK678Siglec+Unique (SLBRSK678, GST fusion), S. sanguinis strain SK678, chimera +Hsa FG loop; experiment: as above; design: species or system Streptococcus sanguinis strain SK678; settings: +SLBRHsa FG loop; one-point, 1-2 μg/ml biotinylated glycans
Source text: as §1

[6] = test system: SK678Siglec+Unique (SLBRSK678, GST fusion), S. sanguinis strain SK678, chimera +Hsa CD loop; experiment: as above; design: species or system Streptococcus sanguinis strain SK678; settings: +SLBRHsa CD loop; one-point, 1-2 μg/ml biotinylated glycans
Source text: as §1

[7] = biological target: SK678Siglec+Unique (SLBRSK678, GST fusion), wild-type, Streptococcus sanguinis strain SK678; experiment: ELISA, biotinylated sialoglycan binding to immobilized GST-adhesin; settings: ELISA curves
Source text: (§2) 20. FIGS. 10A, 10B, 10C, 10D, and 10E show chimeragenesis of Hsa-like adhesins. Dose-response curves of 10A wild-type GST-SK678Siglec+Unique, 10B wild-type GST-UB10712Siglec+Unique, and 10C wild-type GST-HsaSiglec+Unique to five selected ligands. D and E. Dose-response curves of the chimeras D. GST-SK678^Hsa-loops and E. UB10712^Hsa-loops which contain the CD, EF, and FG loops of Hsa.

[8] = biological target: T1, HsaSiglec+Unique (SLBRHsa, GST fusion), wild-type, Streptococcus gordonii strain Challis; experiment: as above; settings: ligands chosen for costructures
Description: (§3) 19. FIGS. 9A, 9B, 9C, and 9D show the impact of flexibility of sialoglycan binding by HsaBR. […] As a note, Hsa^S253 contains Ramachandran angles in the generously allowed region. FIGS. 9B, 9C, and 9D show dose response curves of wild-type and variant GST-HsaSiglec+Unique (500 nM) immobilized in 96-well plates and binding to 9B. the Neu5Ac-Gal disaccharide, 9C. sialyl-T antigen, and 9D. 3′sialyl-N-acetyllactosamine. Biotinylated sialoglycan ligands were added at the indicated concentrations. Binding is reported as the mean±standard deviation, with n=2.
as §2

[9] = biological target: SK678Siglec+Unique (SLBRSK678, GST fusion), S. sanguinis strain SK678, variant E298R; experiment: as above; settings: for EC50: ELISA curves; for binding selectivity: ELISA
Description: (§4) DNA encoding wild-type and variant adhesins were cloned into pGEX-3X. […] DNA encoding adhesin chimeras were cloned into pGEX-3X.
(§5) The pGEX vectors encode an N-terminal glutathione S-transferase (GST) affinity tag, which was used for purification. Individual GST-Siglec+Unique fusions were expressed and purified using glutathione-sepharose, and the binding of biotinylated glycans to immobilized GST-binding regions was performed.

[10] = biological target: SK678Siglec+Unique (SLBRSK678, GST fusion), S. sanguinis strain SK678, variant Q367D; experiment: as above; settings: ELISA curves
Description: Dose response curves of biotin-glycan binding to immobilized variant SLBRs (500 nM). […] Measurements were performed using 500 nM of immobilized GST-adhesin and the indicated concentrations of each ligand are shown as the mean±SD (n=2).
as §4, §5

[11] = biological target: T2, UB10712Siglec+Unique (SLBRUB10712, GST fusion), S. gordonii strain UB10712, variant E285R; experiment: as above
Description: as §4, §5

[12] = previously reported glycan binding/array; cited from earlier work
human plasma proteins = experiment: Far-western blotting of human plasma proteins with GST-binding regions; settings: 15 nM probe
Description: Each Far Western was performed at least twice, with a representative blot shown.
Far-western blotting of human plasma proteins using the indicated GST-binding regions (15 nM) as probes was performed as described.

[13] = ELISA: sialoglycan binding spectrum of wild-type, chimeric and variant adhesins (several ligands, in words); settings: 500 nM immobilized GST-adhesin, compared with wild-type/parent
Description: as §3, §2, §1

| Molecule | relative binding strength (A450) [1] | relative binding strength (A450) [2] | relative binding strength (A450) [3] | relative binding strength (A450) [4] | relative binding strength (A450) [5] | relative binding strength (A450) [6] | EC50 [7] [µg/mL] | ligand affinity class [8] | EC50 [9] [µg/mL] | EC50 [10] [µg/mL] | binding selectivity [11] | binding selectivity [9] | reported sialoglycan selectivity of wild-type adhesin [12] | plasma glycoprotein bound (human plasma proteins) | change of sialoglycan binding and selectivity [13] |
| --- | --- | --- | --- | --- | --- | --- | --- | --- | --- | --- | --- | --- | --- | --- | --- |
| CC(=O)N[C@H]1[C@H]([C@H](O)[C@H](O)CO)O[C@@](O[C@H]2[C@@H](O)[C@@H](CO)O[C@@H](O[C@H]3[C@H](O)[C@@H](NC(C)=O)C(O)O[C@@H]3CO)[C@@H]2O)(C(=O)O)C[C@@H]1O (some centres unmarked) [3′sLn, Neu5Acα2-3Galβ1-4GlcNAc] | ++ (A450 = 0.7-1) | ++ (A450 = 0.7-1) | +++ (A450 > 1) | ++ (A450 = 0.7-1) | + (A450 = 0.3-0.7) | − (A450 < 0.3) | 0.85 (≈ 1.26 µM) | intermediate-affinity | 2.60 (≈ 3.85 µM) | >5 | – | – | – | – | – |
| CC(=O)N[C@H]1[C@H]([C@H](O)[C@H](O)CO)O[C@@](O[C@H]2[C@@H](O)[C@@H](CO)O[C@@H](O[C@H]3[C@H](O)[C@@H](NC(C)=O)C(O)O[C@@H]3COS(=O)(=O)O)[C@@H]2O)(C(=O)O)C[C@@H]1O (stereo partly drawn) [6S-3′sLn] | – | – | – | – | – | – | – | – | – | – | became selective | became selective | – | – | – |
| CC(=O)N[C@H]1[C@H]([C@H](O)[C@H](O)CO)O[C@@](O[C@H]2[C@@H](O)[C@@H](CO)O[C@@H](O[C@H]3[C@H](O[C@@H]4O[C@@H](C)[C@@H](O)[C@@H](O)[C@@H]4O)[C@@H](NC(C)=O)C(O)O[C@@H]3COS(=O)(=O)O)[C@@H]2O)(C(=O)O)C[C@@H]1O (stereo partly drawn) [6S-sLe^X] | + (A450 = 0.3-0.7) | +++ (A450 > 1) | +++ (A450 > 1) | ++ (A450 = 0.7-1) | − (A450 < 0.3) | − (A450 < 0.3) | 0.63 (≈ 0.699 µM) | low-affinity | 0.06 (≈ 0.0666 µM) | >5 | became selective | became selective | – | – | – |
| CC(=O)N[C@H]1[C@H]([C@H](O)[C@H](O)CO)O[C@@](O[C@H]2[C@@H](O)[C@@H](CO)O[C@@H](O[C@H]3[C@H](O)[C@@H](CO)OC(O)[C@@H]3NC(C)=O)[C@@H]2O)(C(=O)O)C[C@@H]1O (some centres unmarked) [sLe^C, Neu5Acα2-3Galβ1-3GlcNAc] | + (A450 = 0.3-0.7) | − (A450 < 0.3) | + (A450 = 0.3-0.7) | − (A450 < 0.3) | − (A450 < 0.3) | − (A450 < 0.3) | >5 | high-affinity | >5 | >5 | – | – | – | – | – |
| CC(=O)N[C@H]1[C@H]([C@H](O)[C@H](O)CO)O[C@@](O[C@H]2[C@@H](O)[C@@H](CO)O[C@@H](O[C@H]3[C@@H](O)[C@@H](CO)OC(O)[C@@H]3NC(C)=O)[C@@H]2O)(C(=O)O)C[C@@H]1O (some centres unmarked) [sTa, Neu5Acα2-3Galβ1-3GalNAc] | ++ (A450 = 0.7-1) | + (A450 = 0.3-0.7) | + (A450 = 0.3-0.7) | − (A450 < 0.3) | − (A450 < 0.3) | − (A450 < 0.3) | >5 | high-affinity | >5 | >5 | – | – | – | – | – |
| GspBSiglec+Unique: wild-type Siglec and Unique domains of GspB from S. gordonii strain M99 (protein) DTERPVVNVPSEITVYRGESFEYFATVTDNSNAFDLAKTVVRWLYNNQPGRGTEWLQYSVTQVGNQLKVRIFGNVPIDTTIGDYTRYVVATDAAGNVNATQTEMGNAAVDKTSVNGQFKLIIRFRIKTPENTVFVNNPNQLTEVEKNLVREAVKKSNPDLRAQDVLNSNYVTGITVSNNGTTTITYRDGRKDIIDGSKFIDTR | – | – | – | – | – | – | – | – | – | – | – | – | narrow selectivity for the sTa trisaccharide | sTa-modified proteoglycan 4 | binding preference for sTa |
